The values that follow are results of earlier work, collected in patent EP0073093A1, “4' Halo-substituted sucrose derivatives” (TATE & LYLE PUBLIC LIMITED COMPANY, priority 1981, dated 1983).

The conditions of data set [1]: qualitative.

Regarding 2,1'-dichloro-2,1'- dideoxy derivative, the sweetness result (qualitative, prior-art sucrose derivatives) is “not sweet at all”.
Take “2,6,1',6'-tetrachloro-2,6,1', 6'-tetradeoxy derivative”: the bittering power entry in data set [1] (comparable with that of quinine) was “potent bittering agent”.
Turning to `O=C1NS(=O)(=O)c2ccccc21` [saccharin], the “times the sweetening power of sucrose” value (relative to sucrose) is “about 200 times”. The after-taste result in data set [1] is listed as “unpleasantly bitter after-taste”.
